The assay addresses T1, Human CARM1 (PRMT4) (Homo sapiens, UniProt Q86X55).
T1 construct: Flag-CARM1-His was eluted with 200 ug/ml FLAG peptide in buffer A; made in house; host or cells: HEK 293F cells (BacMam virus, pFastBacMam)
T1 sequence (Q86X55 with tags, fused parts or gaps isoform Q86X55-1): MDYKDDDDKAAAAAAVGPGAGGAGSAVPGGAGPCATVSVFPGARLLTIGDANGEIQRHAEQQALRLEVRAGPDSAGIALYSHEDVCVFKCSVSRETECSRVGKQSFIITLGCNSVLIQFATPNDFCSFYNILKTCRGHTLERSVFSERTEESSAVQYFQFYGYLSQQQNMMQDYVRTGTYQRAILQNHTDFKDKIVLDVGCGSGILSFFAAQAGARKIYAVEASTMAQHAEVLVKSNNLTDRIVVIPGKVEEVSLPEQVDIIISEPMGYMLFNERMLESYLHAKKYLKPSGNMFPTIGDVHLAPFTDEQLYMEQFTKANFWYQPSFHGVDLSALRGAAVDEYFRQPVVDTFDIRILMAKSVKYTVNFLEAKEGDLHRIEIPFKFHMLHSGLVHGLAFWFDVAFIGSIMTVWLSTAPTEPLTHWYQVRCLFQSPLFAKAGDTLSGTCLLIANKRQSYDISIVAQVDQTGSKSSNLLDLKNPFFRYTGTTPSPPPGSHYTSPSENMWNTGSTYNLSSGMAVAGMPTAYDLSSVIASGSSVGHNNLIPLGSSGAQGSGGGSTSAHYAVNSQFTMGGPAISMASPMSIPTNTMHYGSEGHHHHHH
The experiment in a line: CARM1 biochemical assay (3H-SAM Flashplate, peptide substrate). The method, boiled down:
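Methylation of a biotin-tagged H3 residues 16-30 peptide by recombinant CARM1 tracked via 3H-SAM incorporation, read as scintillation counts after streptavidin Flashplate capture. Compound and enzyme sat 30 min at room temperature first; unlabelled SAM at 300 uM final stopped the reaction. IC50 from Hill fits of % inhibition normalised to SAH and DMSO controls.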

Drawing on patent US9346761B2, “Arginine methyltransferase inhibitors and uses thereof” (Epizyme, Inc., priority 2013, dated 2016), this text covers IC50 for 64 molecules.

For `CN(CCN)Cc1cn[nH]c1-c1ccc(F)cc1` [Compound 1], the IC50 is 1.01 to 3 µM.

On to `CN(CCN)Cc1cnn(C)c1-c1ccc(F)cc1` [Compound 4], for which the half-inhibitory concentration (IC50) lay within 0.101 to 1 µM. As to `CCN(CCNC)Cc1c[nH]nc1-c1ccc(F)cc1` [Compound 9], the IC50 is 1.01 to 3 µM. Consider `CNCCN(C)Cc1cnn(C)c1-c1ccc(F)cc1` [Compound 10], for which the 50% inhibitory concentration (IC50) lay in the range of 1.01 to 3 µM.

`CNCCN(C)Cc1cn(CC2CCOCC2)nc1-c1ccc(F)cc1` [Compound 11] showed an IC50 of over 10 µM. As for `CNCCN(C)Cc1cnn(CC2CCOCC2)c1-c1ccc(F)cc1` [Compound 12], the figure is 3.01 to 10 µM; as for `CNCCN(C)Cc1c[nH]nc1-c1cccc(N)c1` [Compound 32], 1.01 to 3 µM; as for `CNCCN(C)Cc1c[nH]nc1-c1ccc(CC#N)cc1` [Compound 34], 1.01 to 3 µM. As for `CNCCN(C)Cc1c[nH]nc1-c1ccccc1O` [Compound 35], the figure is over 10 µM; as for `CNCCN(C)Cc1c[nH]nc1-c1ccccc1Oc1ccccc1` [Compound 36], over 10 µM; as for `CNCCN(C)Cc1c[nH]nc1-c1cccc(OC(F)(F)F)c1` [Compound 39], 1.01 to 3 µM. As for `CNCCN(C)Cc1c[nH]nc1-c1ccccc1NS(C)(=O)=O` [Compound 41], the figure is over 10 µM; as for `CNCCN(C)Cc1c[nH]nc1-c1cccc(NC(C)=O)c1` [Compound 42], 1.01 to 3 µM; as for `CNCCN(C)Cc1c[nH]nc1-c1cccc(C(C)=O)c1` [Compound 44], 1.01 to 3 µM. The molecule `CNCCN(C)Cc1c[nH]nc1-c1ccc(C(=O)c2ccccc2)cc1` [Compound 45] registered an IC50 of under 0.1 µM. As for `CNCCN(C)Cc1c[nH]nc1-c1ccccc1-c1ccccc1` [Compound 46], the IC50 is over 10 µM. `CNCCN(C)Cc1c[nH]nc1-c1ccc(-c2ccccc2)cc1` [Compound 47] registered an IC50 of under 0.1 µM. As for `CNCCN(C)Cc1c[nH]nc1-c1ccccc1F` [Compound 48], the figure is 3.01 to 10 µM. For the molecule `CNCCN(C)Cc1c[nH]nc1-c1ccc(F)cc1F` [Compound 49], the IC50 was in the range of 3.01 to 10 µM. As for `CNCCN(C)Cc1c[nH]nc1-c1cc(F)ccc1F` [Compound 50], the figure is 3.01 to 10 µM.

In turn, `CNCCN(C)Cc1c[nH]nc1-c1ccc(F)c(F)c1` [Compound 51] had an IC50 of 0.101 to 1 µM. As for `CNCCN(C)Cc1c[nH]nc1-c1ccc(OC)c(F)c1` [Compound 52], the figure is 1.01 to 3 µM; as for `CNCCN(C)Cc1c[nH]nc1-c1cc(Cl)ccc1OC` [Compound 53], over 10 µM.

On to `CNCCN(C)Cc1c[nH]nc1-c1cccc(OC)c1OC` [Compound 54], for which the IC50 was over 10 µM. On to `CNCCN(C)Cc1c[nH]nc1-c1ccc(OC)cc1OC` [Compound 55], for which the IC50 was 3.01 to 10 µM. As for `CNCCN(C)Cc1c[nH]nc1-c1c(OC)cccc1OC` [Compound 56], the figure is over 10 µM; as for `CNCCN(C)Cc1c[nH]nc1-c1cccc2ccccc12` [Compound 57], 1.01 to 3 µM; as for `CNCCN(C)Cc1c[nH]nc1-c1ccc2ccccc2c1` [Compound 58], 0.101 to 1 µM. As for `CNCCN(C)Cc1cn(CCC(O)CO)nc1-c1ccc(F)cc1` (stereo not shown) [Compound 59], the figure is 3.01 to 10 µM. Regarding `CCNCCN(C)Cc1c[nH]nc1-c1ccc(F)cc1` [Compound 60], the IC50 is over 10 µM. Consider `COCCn1cc(CN(C)CCN(C)C)c(-c2ccc(F)cc2)n1` [Compound 61], for which the IC50 was over 10 µM. As for `CCN(CCN)Cc1c[nH]nc1-c1ccc(F)cc1` [Compound 62], the figure is 0.101 to 1 µM; as for `CCCN(CCN)Cc1c[nH]nc1-c1ccc(F)cc1` [Compound 63], over 10 µM. As for `COCCn1ncc(CN(C)CCN(C)C)c1-c1ccc(F)cc1` [Compound 64], the figure is over 10 µM; as for `CN(CCN)Cc1cnn(CCO)c1-c1ccc(F)cc1` [Compound 65], 3.01 to 10 µM; as for `CN(CCN)Cc1cn(CCO)nc1-c1ccc(F)cc1` [Compound 66], 3.01 to 10 µM. In turn, `CC(C)Oc1ccc(-c2n[nH]cc2CN(C)CCN)cc1` [Compound 67] came in with an IC50 of 0.101 to 1 µM. As for `CN(CCN)Cc1c[nH]nc1-c1ccc(C#N)cc1` [Compound 68], the figure is 0.101 to 1 µM; as for `CN(CCN)Cc1n[nH]cc1-c1ccc(F)cc1` [Compound 69], 3.01 to 10 µM; as for `CN(CCN)Cc1c[nH]nc1-c1cccc(C#N)c1` [Compound 70], 3.01 to 10 µM. As for `CN(CCN)Cc1c[nH]nc1-c1cccc(F)c1` [Compound 71], the figure is 0.101 to 1 µM. `CN(CCN)Cc1c[nH]nc1-c1ccccc1F` [Compound 72]: the IC50 was in the range of 3.01 to 10 µM.

In the case of `CN(CCN)Cc1c[nH]nc1-c1ccccc1` [Compound 73], the IC50 was 1.01 to 3 µM. As for `CN(CCN)Cc1c[nH]nc1-c1ccc(C(C)(C)C)cc1` [Compound 74], the figure is 3.01 to 10 µM. As for `CC(C)N(CCN)Cc1c[nH]nc1-c1ccc(F)cc1` [Compound 75], the figure is over 10 µM; as for `CN(CCN)Cc1cn(CC(O)CO)nc1-c1ccc(F)cc1` (stereo not shown) [Compound 76], over 10 µM.

In turn, `CN(CCN)Cc1cn(C2COC2)nc1-c1ccc(F)cc1` [Compound 77] displayed an IC50 of 3.01 to 10 µM. `NCCN(Cc1c[nH]nc1-c1ccc(F)cc1)C1CC1` [Compound 78]: the IC50 is over 10 µM.

`CN(CCN)Cc1cn(CC2COC2)nc1-c1ccc(F)cc1` [Compound 79] registered an IC50 of over 10 µM. As for `CN(CCN)Cc1cnn(CC2COC2)c1-c1ccc(F)cc1` [Compound 80], the figure is over 10 µM; as for `CN(CCN)Cc1cnn(C2COC2)c1-c1ccc(F)cc1` [Compound 81], 1.01 to 3 µM; as for `CN(CCN)Cc1c[nH]nc1-c1ccc(N2CCNCC2)cc1` [Compound 82], 3.01 to 10 µM. As for `CN(CCN)Cc1nn(C)cc1-c1ccc(C#N)cc1` [Compound 83], the figure is 1.01 to 3 µM; as for `CN(CCN)Cc1c(-c2ccc(C#N)cc2)cnn1C` [Compound 84], over 10 µM; as for `CN(CCN)Cc1c[nH]nc1-c1ccc(C(F)(F)F)cc1C(F)(F)F` [Compound 85], over 10 µM.

Molecule `CN(CCN)Cc1c[nH]nc1-c1ccc(Cl)cc1Cl` [Compound 86] showed an IC50 of 3.01 to 10 µM. As for `COc1ccc(-c2n[nH]cc2CN(C)CCN)c(OC)c1` [Compound 87], the figure is 3.01 to 10 µM.

`Cc1ccc(-c2n[nH]cc2CN(C)CCN)c(C)c1` [Compound 88]: the half-maximal inhibitory concentration (IC50) lay within 3.01 to 10 µM. In the case of `CN(CCN)Cc1c[nH]nc1-c1ccc(F)cc1Cl` [Compound 89], the IC50 fell in the range of 3.01 to 10 µM. As for `Cc1ccc(-c2n[nH]cc2CN(C)CCN)c(Cl)c1` [Compound 90], the IC50 was in the range of 3.01 to 10 µM. As for `Cc1ccc(Cl)c(-c2n[nH]cc2CN(C)CCN)c1` [Compound 91], the figure is over 10 µM. As for `CN(CCN)Cc1c[nH]nc1-c1ccc(C(F)(F)F)cc1` [Compound 92], the figure is 0.101 to 1 µM. As for `CN(CCN)Cc1c[nH]nc1-c1ccc(OC(F)(F)F)cc1` [Compound 93], the figure is 1.01 to 3 µM; as for `CN(CCN)Cc1c[nH]nc1-c1ccc(OC(F)F)cc1` [Compound 94], 0.101 to 1 µM.
